Laboratory results: PubChem BioAssay (NCI)
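Following 48 hours of exposure in 96-well plates, responses at five concentrations were used to interpolate endpoints linearly. TGI denotes the concentration required for complete inhibition of growth.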

Experiments:
Experiment in all cases: NCI tumour cell line growth inhibition, 48 h
HOP-62 NSCLC = test system: HOP-62 NSCLC
P388 leukemia = test system: P388 leukemia
UO-31 renal = test system: UO-31 renal
SNB-75 CNS = test system: SNB-75 CNS
RXF-631 renal = test system: RXF-631 renal
HCT-15 colon = test system: HCT-15 colon
NCI/ADR-RES ovarian = test system: NCI/ADR-RES ovarian
CCRF-CEM leukemia = test system: CCRF-CEM leukemia
OVCAR-5 ovarian = test system: OVCAR-5 ovarian
SNB-19 CNS = test system: SNB-19 CNS
SK-MEL-28 melanoma = test system: SK-MEL-28 melanoma
KM12 colon = test system: KM12 colon
MDA-MB-231 breast = test system: MDA-MB-231 breast
HOP-92 NSCLC = test system: HOP-92 NSCLC
SN12C renal = test system: SN12C renal
HCT-116 colon = test system: HCT-116 colon
SR leukemia = test system: SR leukemia
SK-MEL-2 melanoma = test system: SK-MEL-2 melanoma
HT29 colon = test system: HT29 colon
COLO 205 colon = test system: COLO 205 colon
ACHN renal = test system: ACHN renal
NCI-H460 lung = test system: NCI-H460 lung
HOP-18 NSCLC = test system: HOP-18 NSCLC
HL-60(TB) leukemia = test system: HL-60(TB) leukemia
NCI-H23 lung = test system: NCI-H23 lung
T-47D breast = test system: T-47D breast
MALME-3M melanoma = test system: MALME-3M melanoma
HCC-2998 colon = test system: HCC-2998 colon
UACC-257 melanoma = test system: UACC-257 melanoma
MCF7 breast = test system: MCF7 breast
A498 renal = test system: A498 renal
LOX IMVI melanoma = test system: LOX IMVI melanoma
PC-3 prostate = test system: PC-3 prostate
U251 CNS = test system: U251 CNS
SK-OV-3 ovarian = test system: SK-OV-3 ovarian
SNB-78 CNS = test system: SNB-78 CNS
DLD-1 colon = test system: DLD-1 colon
DU-145 prostate = test system: DU-145 prostate
XF 498 CNS = test system: XF 498 CNS
M19-MEL melanoma = test system: M19-MEL melanoma
OVCAR-4 ovarian = test system: OVCAR-4 ovarian
LXFL 529 NSCLC = test system: LXFL 529 NSCLC
NCI-H522 lung = test system: NCI-H522 lung
TK-10 renal = test system: TK-10 renal
SF-268 CNS = test system: SF-268 CNS
NCI-H226 lung = test system: NCI-H226 lung
A549 NSCLC = test system: A549 NSCLC
UACC-62 melanoma = test system: UACC-62 melanoma
BT-549 breast = test system: BT-549 breast
786-0 renal = test system: 786-0 renal
DMS 114 small cell lung = test system: DMS 114 small cell lung
M14 melanoma = test system: M14 melanoma
EKVX NSCLC = test system: EKVX NSCLC
RPMI-8226 leukemia = test system: RPMI-8226 leukemia
DMS 273 small cell lung = test system: DMS 273 small cell lung
MDA-MB-435 = test system: MDA-MB-435
CAKI-1 renal = test system: CAKI-1 renal
K-562 leukemia = test system: K-562 leukemia
MDA-N = test system: MDA-N
SW-620 colon = test system: SW-620 colon
OVCAR-8 ovarian = test system: OVCAR-8 ovarian
MOLT-4 leukemia = test system: MOLT-4 leukemia
SN12K1 renal = test system: SN12K1 renal
SF-539 CNS = test system: SF-539 CNS
IGROV1 ovarian = test system: IGROV1 ovarian
P388/ADR leukemia = test system: P388/ADR leukemia
KM20L2 colon = test system: KM20L2 colon
HS 578T breast = test system: HS 578T breast
OVCAR-3 ovarian = test system: OVCAR-3 ovarian
RXF 393 renal = test system: RXF 393 renal
SF-295 CNS = test system: SF-295 CNS
SK-MEL-5 melanoma = test system: SK-MEL-5 melanoma

Work on `Clc1ccc(C(c2ccccc2Cl)C(Cl)Cl)cc1` (configuration not stated) yielded a TGI (HOP-62 NSCLC) of 39.7 µM, a TGI (P388 leukemia) of 38.2 µM and a TGI (UO-31 renal) of 37.4 µM. The TGI (SNB-75 CNS) was 35.1 µM, the TGI (RXF-631 renal) was 35.8 µM and the TGI (HCT-15 colon) was 36.5 µM. For the same compound, the TGI (NCI/ADR-RES ovarian) was 37.1 µM, the TGI (CCRF-CEM leukemia) was 47.1 µM and the TGI (OVCAR-5 ovarian) was 33.9 µM. The TGI (SNB-19 CNS) was 37.6 µM, the TGI (SK-MEL-28 melanoma) was 36.7 µM and the TGI (KM12 colon) was 37.1 µM. It also gave a TGI (MDA-MB-231 breast) of 35.2 µM, a TGI (HOP-92 NSCLC) of 32.1 µM and a TGI (SN12C renal) of 37 µM. It also gave a TGI (HCT-116 colon) of 31.4 µM, a TGI (SR leukemia) of 46.5 µM and a TGI (SK-MEL-2 melanoma) of 35.8 µM. For the same compound, the TGI (HT29 colon) was 33.7 µM, the TGI (COLO 205 colon) was 38.9 µM and the TGI (ACHN renal) was 38.8 µM. It also gave a TGI (NCI-H460 lung) of 39.3 µM, a TGI (HOP-18 NSCLC) of 21.6 µM and a TGI (HL-60(TB) leukemia) of 51.5 µM. It also gave a TGI (NCI-H23 lung) of 37.7 µM, a TGI (T-47D breast) of 33.3 µM and a TGI (MALME-3M melanoma) of 33.5 µM. It also gave a TGI (HCC-2998 colon) of 29.4 µM, a TGI (UACC-257 melanoma) of 37.2 µM and a TGI (MCF7 breast) of 37.8 µM. The TGI (A498 renal) was 38.6 µM, the TGI (LOX IMVI melanoma) was 40.2 µM and the TGI (PC-3 prostate) was 35.5 µM. It also gave a TGI (U251 CNS) of 36.8 µM, a TGI (SK-OV-3 ovarian) of 39.7 µM and a TGI (SNB-78 CNS) of 41.5 µM. The TGI (DLD-1 colon) was 38.6 µM, the TGI (DU-145 prostate) was 34.3 µM and the TGI (XF 498 CNS) was 37.2 µM. It also gave a TGI (M19-MEL melanoma) of 39 µM, a TGI (OVCAR-4 ovarian) of 35.7 µM and a TGI (LXFL 529 NSCLC) of 38.2 µM. For the same compound, the TGI (NCI-H522 lung) was 34.3 µM, the TGI (TK-10 renal) was 37.5 µM and the TGI (SF-268 CNS) was 37.6 µM. It also gave a TGI (NCI-H226 lung) of 39.1 µM, a TGI (A549 NSCLC) of 35.4 µM and a TGI (UACC-62 melanoma) of 34.4 µM. The TGI (BT-549 breast) was 30.2 µM, the TGI (786-0 renal) was 36.7 µM and the TGI (DMS 114 small cell lung) was 36.7 µM. It also gave a TGI (M14 melanoma) of 37.1 µM, a TGI (EKVX NSCLC) of 32.6 µM and a TGI (RPMI-8226 leukemia) of 49 µM. For the same compound, the TGI (DMS 273 small cell lung) was 36 µM, the TGI (MDA-MB-435) was 32 µM and the TGI (CAKI-1 renal) was 31.8 µM. For the same compound, the TGI (K-562 leukemia) was 44.2 µM, the TGI (MDA-N) was 35.1 µM and the TGI (SW-620 colon) was 39.2 µM. The TGI (OVCAR-8 ovarian) was 40 µM, the TGI (MOLT-4 leukemia) was 41.1 µM and the TGI (SN12K1 renal) was 36.9 µM. The TGI (SF-539 CNS) was 36.5 µM, the TGI (IGROV1 ovarian) was 30.7 µM and the TGI (P388/ADR leukemia) was 44.2 µM. The TGI (KM20L2 colon) was 33.8 µM, the TGI (HS 578T breast) was 37.1 µM and the TGI (OVCAR-3 ovarian) was 34.3 µM. For the same compound, the TGI (RXF 393 renal) was 30.9 µM, the TGI (SF-295 CNS) was 35.6 µM and the TGI (SK-MEL-5 melanoma) was 36.1 µM.
